Reference: US6528535B2, “Bicyclic inhibitors of protein farnesyl transferase” (Warner-Lambert Company, priority 1997, dated 2003)

Legend:
[1] = tested on: human colon carcinoma xenografts; conditions: 100 mg/kg; human colon carcinoma xenografts in nude mice; cited from earlier work
[2] = tested on: EJ-1 human bladder carcinoma; conditions: 100 mg/kg; EJ-1 human bladder carcinoma xenograft in nude mice; cited from earlier work
[3] = tested on: HT1080 human fibrosarcoma; conditions: 100 mg/kg; HT1080 human fibrosarcoma xenograft in nude mice; cited from earlier work
[4] = tested on: mammary and salivary carcinomas; conditions: daily administration; ras transgenic mice; cited from earlier work
[5] = molecular target: T1, SF9 affinity purified rat FPT (Rattus norvegicus, UniProt Q02293+Q04631); assay: PFT (farnesyl protein transferase) inhibitory activity, radiolabeled farnesyl pyrophosphate / biotinyl peptide bead assay; format: biochemical; conditions: average of two tests unless n is given in parentheses; read-out: FTase, IC50
T1 construct: made in house; host or cells: Sf9 insect cells
Protocol: The protein:farnesyl transferase (PFT) or farnesyl protein transferase (FPT) inhibitory activity of compounds of the present invention were assayed in HEPES buffer (pH 7.4) containing 5 mM potassium phosphate and 20 μM ZnCl2. The solution also contained 5 mM DTT (dithiothreitol), 5 mM MgCl2, and 0.1% PEG 8000. Assays were performed in 96 well plates (Wallec) and employed solutions composed of varying concentrations of a compound of the present invention in 10% DMSO (dimethylsulfoxide). Upon addition of both substrates, radiolabeled farnesyl pyrophosphate ([1^3H], specific activity 15-30 Ci/mmol, final concentration 134 nM) and (biotinyl)-Ahe-Thr-Lys-Cys-Val-Ile-Met ([3aS[3a alpha, 4 beta, 6a alpha]-hexahydro-2-oxo-1H-thieno[3,4-d]imidazole-5-pentanoic acid]-[7-aminoheptanoic acid]-Thr-Lys-Cys-Val-Ile-Met) (Ahe is 7-aminoheptanoic acid, Thr is threonine, Lys is lysine, Cys is cysteine, Val is valine, Ile is isoleucine, and Met is methionine) (final concentration 0.2 μM), the enzyme reaction was started by addition of SF9 affinity purified rat FPT. After incubation at 30° C. for 30 minutes, the reaction was terminated by diluting the reaction 2.5-fold with a stop buffer containing 1.5 M magnesium acetate, 0.2 M H3PO4, 0.5% BSA (bovine serum albumin), and strepavidin beads (Amersham) at a concentration of 1.3 mg/mL. After allowing the plate to settle for 30 minutes at room temperature, radioactivity was quantitated on a microbeta counter (Model 1450, Wallec). The assay was also carried out without 5 mM potassium phosphate.

[6] = tested on: human lung carcinoma with K-ras mutation and p53 deletion; conditions: nude mice; cited from earlier work

SMILES	melting point	IC50 [5]	other results
COC(=O)[C@H](CCSC)NC(=O)[C@H](/C=C\[C@@H](/C=C/[C@@H](N)CS)C(C)C)Cc1ccccc1 [Example B1086]			tumor growth [1]: inhibit tumor growth; tumor growth [2]: inhibit tumor growth; tumor growth [3]: inhibit tumor growth
CC[C@H](C)[C@@H](CO[C@@H](Cc1ccccc1)C(=O)N[C@@H](CCS(C)(=O)=O)C(=O)OC(C)C)NC[C@@H](N)CS [L-744,832]			tumor regression [4]: caused tumor regression
CSc1ccc(C=C2CCc3cc(OCCc4c[nH]cn4)ccc3C2=O)s1.Cl [Example 32, 6-[2-(1H-Imidazole-4-yl)-ethoxy]-2-(5-methylsulfanyl-thiophen-2-ylmethylene)-3,4-dihydro-2H-naphthalen-1-one, monohydrochloride]	168 to 169 °C	9100 nM	
COc1ccc(C=C2CCc3cc(OCCn4ccnc4)ccc3C2=O)cc1 [Example 24, 6-(2-Imidazole-1-yl-ethoxy)-2-(4-methoxy-benzylidene)-3,4-dihydro-2H-naphthalen-1-one]	132 to 133 °C	880 nM	
Cc1c(OCCn2ccnc2)ccc2c1CCCC2=O [Example 47, 6-[2-(1H-1-Imidazolyl)ethoxy]-5-methyl-1,2,3,4-tetrahydro-1-naphthalenone]	110 to 112 °C	1300 nM	
CSCC[C@H](NC(=O)c1ccc(NC[C@@H](N)CS)cc1-c1ccccc1)C(=O)O [FTI276]			tumor growth [6]: selectively block tumor growth
CCN(CC)C(=O)c1ccc(C=C2CCc3cc(OCCc4c[nH]cn4)ccc3C2=O)cc1.Cl [Example 34, N,N-Diethyl-4-{6-[2-(1H-imidazole-4-yl)-ethoxy]-1-oxo-3,4-dihydro-1H-naphthalen-2-ylidenemethyl}-benzamide, monohydrochloride]	211 to 213 °C	12200 nM	
O=C1C(=Cc2sccc2Oc2ccccc2)CCc2cc(OCCn3ccnc3)ccc21 [Example 20, 6-(2-Imidazole-1-yl-ethoxy)-2-(3-phenoxy-thiophen-2-ylmethylene)-3,4-dihydro-2H-naphthalen-1-one]	135 to 137 °C	3100 nM	
O=C1CCOc2cc(OCCn3ccnc3)ccc21 [Example 51, 7-[2-(1H-1-Imidazolyl)ethoxy]-4-chromanone]	128 to 130 °C	4400 nM	
O=C1C(=Cc2ccco2)CCc2cc(OCCc3c[nH]cn3)ccc21 [Example 41, 2-Furan-2-ylmethylene-6-[2-(1H-imidazole-4-yl)-ethoxy]-3,4-dihydro-2H-naphthalen-1-one]	57 to 60 °C	190 nM	
O=C1C(=Cc2ccsc2)CCc2cc(OCCn3ccnc3)ccc21 [Example 11, 6-(2-Imidazole-1yl-ethoxy)-2-thiophen-3-ylmethylene-3,4-dihydro-2H-naphthalen-1-one]	61 to 62 °C	120 nM	
O=C1C(=Cc2ccc(Cl)s2)CCc2cc(OCCn3ccnc3)ccc21 [Example 18, 2-(5-Chloro-thiophen-2-ylmethylene)-6-(2-imidazole-1-yl-ethoxy)-3,4-dihydro-2H-naphthalen-1-one]	143 to 144 °C	320 nM	
CC(COc1ccc2c(c1)CCCC2=O)n1ccnc1 (centres unmarked) [Example 78, 6-[2-(1H-1-Imidazolyl)propoxy]-1,2,3,4-tetrahydro-1-naphthalenone]	132 to 135 °C	2600 nM	
O=C1C(=Cc2cccc3ccccc23)CCc2cc(OCCn3ccnc3)ccc21 [Example 15, 6-(2-Imidazole-1-yl-ethoxy)-2-naphthalen-1-ylmethylene-3,4-dihydro-2H-naphthalen-1-one]	147 to 148 °C	1300 nM	
O=C(O)c1ccc(C=C2CCc3cc(OCCn4ccnc4)ccc3C2=O)cc1 [Example 12, 4-[6-(2-Imidazole-1-yl-ethoxy)-1-oxo-3,4-dihydro-1H-naphthalen-2-ylidenemethyl]-benzoic acid]	267 to 267.5 °C	600 nM	
O=C1/C(=C/C=C/c2ccccc2)CCc2cc(OCCn3ccnc3)ccc21 [Example 44, (E,E)-6-(2-Imidazol-1-yl-ethoxy)-2-(3-phenyl-allylidene)-3,4-dihydro-2H-naphthalen-1-one]	198 to 200 °C	3600 nM	
O=C(O)CON=C1CCCc2cc(OCCn3ccnc3)ccc21 [Example 54, [6-(2-Imidazol-1-yl-ethoxy)-3,4-dihydro-2H-naphthalen-1-ylideneaminooxy]-acetic acid]	193 to 195 °C	340 nM	
O=C1CC(c2ccccc2)Oc2cc(OCCn3ccnc3)ccc21 (centres unmarked) [Example 76, 7-[2-(1H-1-Imidazolyl)ethoxy]-2-phenyl-4-chromanone]	139 to 140 °C	120 nM	
